Assay results from publication PMC5294416, “Novel peptides for deciphering structural and signalling functions of E-cadherin in mouse embryonic stem cells” (Scientific Reports, 2017).
Primed or numbered codes have the meaning given here. Ends that are not written are not given here. FITC′ = fluorescein-5(6)-isothiocyanate; Nova linker = not defined here

Legend:
[1] = tested on: OCT4 protein in wtD3 mESCs; assay: Immunofluorescence microscopy analysis of OCT4 protein expression with pathway inhibitors; assay type: cell-based, mouse; conditions: for OCT4 protein expression, inhibitor with vehicle control: wtD3 mESCs, no peptide, after 5 days
Experimental: (§1) Unless otherwise stated, mESC lines were grown on gelatinised tissue culture grade 6-well plates at 37 °C/5% CO2, as previously described. mESCs cells were treated with 10 μM peptide in mESC culture medium which was replenished every 24 h. Inhibition of specific pathways in mESCs was achieved by incubation with 10 μM LY294002 (PI3K inhibitor), PD9805 (MEK inhibitor) and SB431542 (TGFβ1 R inhibitor).
(§2) Monolayer cultured mESCs were fixed in situ in 4% w/v PFA in PBS for 30 minutes at room temperature, washed twice with PBS and blocked with 1% goat serum in 0.1% w/v BSA, 0.1% Triton X-100 in PBS for 30 minutes. Cells were incubated in the appropriate primary antibody in goat blocking buffer for two hours at RT. Cells were washed three times in PBS and incubated in the appropriate Alexa fluor-488 or −546 conjugated secondary antibody at RT for 1 hour in the dark. Cells were washed three times with PBS, mounted in 4′6-diamidino-2-phenylindole (DAPI) (Vector Laboratories) and visualized using a Leica DM6000B fluorescence microscope (Leica Microsystems) and processed using Leica LAS X Core software (Leica Microsystems). Primary antibodies: anti-Nanog, 1:200 dilution (ab80892, Abcam Plc, Cambridge, UK); anti-Oct4, 1:200 dilution (ab19857, Abcam Plc, Cambridge, UK). For immunofluorescence microscopy analysis of fluorescent-tagged peptides, cells were incubated in 500 μM peptide in cell culture medium for 15 minutes, washed twice in ice cold PBS and mounted with Vectorshield containing DAPI. Cells were visualized using a Leica DM6000B fluorescence microscope (Leica Microsystems) and processed using Leica LAS X Core software (Leica Microsystems).
(§3) Images were imported into ImageJ and fluorescence intensity measured using the Analyse > Measure function on areas selected using the rectangular or oval selection icons.

[2] = target: T1, recombinant mouse E-Cadherin Fc Chimera (Mus musculus, UniProt P09803); assay: Biacore SPR equilibrium binding analysis (affinity capture); conditions: equilibrium analysis using affinity capture on HTE chip, peptide stock in water, average of three runs, running buffer HBS/0.02% Tween/2 mM CaCl2/1 mM MgCl2
T1 construct: purchased R&D Systems
Experimental: Biacore SPR analysis was used to measure the interaction between peptides and recombinant mouse E-Cadherin Fc Chimera (R&D Systems). Analytes were passed over an HTE chip with surface bound His-tagged Recombinant Mouse E-Cadherin Fc Chimera (R&D Systems). The kinetics of interaction, i.e. the rates of complex formation (ka) and dissociation (kd), were determined and Integrin α4β7 protein was used as a control. Analysis was performed by the Biomolecular Analysis Core Facility (The University of Manchester, UK) on a Proteon XPR-36 protein interaction array system (Bio-Rad) using a HTE chip for high capacity His-tagged protein capture (Bio-Rad). Equilibrium analysis runs were performed three times and an average KD was calculated. Running buffer: HBS/0.02%, Tween/2 mM, CaCl2/1 mM MgCl2.

wtD3 mESCs [3] = assay: Loss of cell-cell contact, phase contrast microscopy; assay type: cell-based, mouse; conditions: for Effect on cell-cell contact (in words): wtD3 mESCs, 10 μM peptide, 24 h, phase contrast
Experimental: as §1

wtD3 and Ecad−/− mESCs = assay: Binding of fluorescent-tagged peptides to wtD3 versus Ecad−/− mESCs; assay type: cell-based, mouse; conditions: fluorescein-tagged peptide, 500 μM, 15 minutes, 37 °C, immunofluorescence microscopy / flow cytometry
Experimental: D3 and Ecad^−/− mESCs were treated with Epep-F or EpepW2R-F at concentrations of 0 (control), 5, 10, 25, 50 and 500 μM in culture medium as a monolayer on ice. Ice cold conditions were utilised to minimise endocytosis of fluorescent tagged peptide. Cells were harvested using cell dissociation buffer, centrifuged and washed with PBS and fixed in 500 μl 1% w/v paraformaldehyde (PFA) in PBS for analysis using a FACSCalibur (BD Biosciences, California, USA). Viable cells were gated using forward scatter and side scatter and all data shown represents quantification of the fluorescence emitted by this population.
Monolayer cultured mESCs were fixed in situ in 4% w/v PFA in PBS for 30 minutes at room temperature, washed twice with PBS and blocked with 1% goat serum in 0.1% w/v BSA, 0.1% Triton X-100 in PBS for 30 minutes. Cells were incubated in the appropriate primary antibody in goat blocking buffer for two hours at RT. […] Cells were washed three times with PBS, mounted in 4′6-diamidino-2-phenylindole (DAPI) (Vector Laboratories) and visualized using a Leica DM6000B fluorescence microscope (Leica Microsystems) and processed using Leica LAS X Core software (Leica Microsystems). […] Cells were visualized using a Leica DM6000B fluorescence microscope (Leica Microsystems) and processed using Leica LAS X Core software (Leica Microsystems). […]

[4] = Water solubility of peptides; assay type: physicochemical
Experimental: All peptides were synthesised by Severn Biotech Ltd (UK) as a lyophilized powder. Peptides were solubilised to a stock solution of 100 mM in ddH20, unless otherwise stated. Peptides were tagged with a Fluorescin-5(6) molecule at the NH2-terminus, separated by a Nova linker molecule, and assessed for activity prior to use (inhibition of cell-cell contact).

wtD3 mESCs [5] = assay type: cell-based; conditions: 24 h, 10 μM
Excerpt: Cell viability was quantified using an Alexa Fluor 488 Annexin V/Dead Cell Apoptosis Kit (Invitrogen) according to the manufacturer’s instructions.

[6] = tested on: STAT3 phosphorylation in wtD3 mESCs; assay: Western blot analysis of phosphorylated STAT3; assay type: cell-based, mouse; conditions: wtD3 mESCs vs control treated cells, western blot
Experimental: as §1
Cells were harvested using cell dissociation buffer, centrifuged and washed with PBS prior to lysis using Radioimmunoprecipitation (RIPA) buffer (Sigma) containing protease inhibitor cocktail tablets (1 tablet per 10 ml RIPA buffer) (Roche Applied Science) at a concentration of 2 × 10^7 cell/ml. Lysates were separated by SDS-PAGE and electrotransferred onto nitrocellulose membrane as previously described. The membrane was probed using the appropriate primary antibody with subsequent incubation with HRP-conjugated secondary antibody. The membrane was exposed to an autoradiographic film (Hyperfilm ECL, GE Healthcare, Amersham, UK) for the appropriate time period in an X-ray cassette before the film was manually developed in a dark room using Kodak GBX developer and fixer solutions (Sigma, Dorset, UK). Primary antibodies: anti-α-tubulin, 1:2000 dilution (T9026, Sigma, Dorset, UK); anti-AKT, 1:200 dilution (#9272, Cell Signalling Technology, MA, USA); anti-pAKT (Ser473), 1:200 (#4060S, Cell Signalling Technology, MA, USA); anti-STAT3, 1:200 dilution (SC-482, Santa Cruz Biotechnology Inc, TX, USA); anti-pSTAT3, 1:200 dilution (#9138S, Cell Signalling Technology, MA, USA).

[7] = tested on: Nanog, Klf4, Tbx3, Esrrb, Nr0b1, Nr5a2 and Tet1 transcripts in wtD3 mESCs; assay: qPCR analysis of pluripotency transcript expression; assay type: cell-based, mouse
Experimental: as §1
Primers for qPCR were designed using the Roche Applied science Universal Probe Library software and BLAST screened for sequence specificity. Only primers producing a single dissociation peak were used. RNA was extracted from mESCs and cDNA at a concentration of 2 ng/μl was used for analysis in a MicroAmp Optical 96-well Reaction Plate (Applied Biosystems) using SYBR green Jumpstart Taq ReadyMix (Applied Biosystems). Primer sequences: 18srRNA Forward (F) […], Reverse (R) […]; ESRRB F-[…], R-[…]; KLF4 F-[…], R-ATGTCCGCCAGGTTGAAG; NANOG F-[…], R-[…]; NR0B1 F-[…], R-[…]; NR5A2 F-[…], R-[…]; TBX3 F-[…], R-[…]; TET1 F-[…], R-[…].

[8] = tested on: NANOG protein in wtD3 mESCs; assay: Immunofluorescence microscopy analysis of NANOG protein expression; assay type: cell-based, mouse; conditions: 96 h / 4 days where stated
Experimental: as §2, with “For immunofluorescence microscopy analysis of fluorescent-tagged peptides, cells were incubated in 500 μM peptide in cell culture medium for 15 minutes, washed twice in ice cold PBS and mounted with Vectorshield containing DAPI.” left out
as §3

pERK1/2 in wtD3 mESCs = assay: Western blot analysis of phosphorylated ERK1/2; assay type: cell-based, mouse
mESCs = assay: Cell viability in monolayer culture; assay type: cell-based, mouse; conditions: data not shown
[9] = target: His-tagged Recombinant Mouse E-Cadherin Fc Chimera (mouse) (UniProt P09803); assay: SPR; as a1, E-cadherin-Fc captured on the HTE chip; peptide dissolved in 10%v/v DMSO/H2O; EpepP7R at 0.3, 1, 3, 5, 10 μM; equilibrium analysis
[10] = target: T2, His-tagged Recombinant Mouse E-Cadherin Fc Chimera, P09803; assay: Biacore SPR equilibrium affinity capture analysis; conditions: chain shown with the change
T2 chain: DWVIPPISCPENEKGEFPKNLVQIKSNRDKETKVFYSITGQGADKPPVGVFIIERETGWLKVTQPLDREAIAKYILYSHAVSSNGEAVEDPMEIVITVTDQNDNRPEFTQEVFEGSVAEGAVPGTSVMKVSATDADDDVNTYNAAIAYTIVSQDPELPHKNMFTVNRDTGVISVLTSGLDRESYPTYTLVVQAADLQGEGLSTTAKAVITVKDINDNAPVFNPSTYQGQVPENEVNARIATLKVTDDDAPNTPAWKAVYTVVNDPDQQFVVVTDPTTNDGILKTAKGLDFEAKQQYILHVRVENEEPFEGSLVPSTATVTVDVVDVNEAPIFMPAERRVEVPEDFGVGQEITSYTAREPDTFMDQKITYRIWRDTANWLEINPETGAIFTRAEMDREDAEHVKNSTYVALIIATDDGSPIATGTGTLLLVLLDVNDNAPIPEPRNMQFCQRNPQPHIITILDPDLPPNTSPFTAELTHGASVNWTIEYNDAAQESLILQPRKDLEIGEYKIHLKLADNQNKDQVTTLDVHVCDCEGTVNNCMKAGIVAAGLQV

[11] = transcript, mESCs, Fig. 6a summary

Molecule: NC(=O)c1ccc(-c2nc(-c3ccc4c(c3)OCO4)c(-c3ccccn3)[nH]2)cc1 [SB431542]
- OCT4 protein expression, inhibitor with vehicle control [1]: maintained expression of OCT4 protein

Molecule: SWELYAPLRANL [EpepY6A]
- Kd [2]: 21.4 µM

Molecule: SWALYYPLRANL [EpepE3A]
- Kd [2]: 6.9 µM

Molecule: Epep-F: Epep with fluorescein-5(6)-isothiocyanate label conjugated to the NH2-terminus via a Nova linker ({FITC′-Nova linker}-SWELYYPLRANL; reading uncertain)
- Effect on cell-cell contact (in words) (wtD3 mESCs [3]): loss of cell-cell contact
- Binding of fluorescent-tagged peptide to wtD3 versus Ecad−/− mESCs (wtD3 and Ecad−/− mESCs): preferential binding to wtD3 ESCs

Molecule: SWELAYPLRANL [EpepY5A]
- Kd [2]: 8.82 µM

Molecule: SWEAYYPLRANL [EpepL4A]
- Kd [2]: 3.61 µM

Molecule: SWELYYRLRANL-NH2 (C-terminus assumed) [EpepP7R]
- Loss of cell-cell contact (10μM)? (wtD3 mESCs [3]; mESCs, 10 μM, Fig. 6a summary): YES
- Effect on cell-cell contact (in words) (wtD3 mESCs [3]): Abrogation of E-cadherin mediated cell-cell contact was observed with EpepP7R (Fig. 5c and Figure S1b), although cell dissociation was reduced compared to Epep
- solvent required for complete solubilization ([4]; 100 mM stock): 10%v/v DMSO/H2O
- solubility in water ([4]; lyophilized powder, stock in water): < 100 mM

Molecule: SAELYYPLRANL [EpepW2A]
- Kd [2]: 55 µM

Molecule: SWELYYP [EpepΔCtm]
- Kd [2]: 2.7 µM
- viable population (lower left box) (wtD3 mESCs [5]): 59.1%

Molecule: SRELYYPLRANL [EpepW2R, Epep with the Trp-2 residue replaced with arginine, …]
- KD [2]: did not produce a strong enough response to perform equilibrium analysis
- Effect on cell-cell contact (in words) (wtD3 mESCs [3]): did not induce loss of cell-cell contact
- Effect on STAT3 phosphorylation (in words) [6]: unaffected
- Loss of Nanog [7, 11]: YES
- Loss of Nr0b1 [7, 11]: YES
- Loss of Nr5a2 [7, 11]: YES
- Loss of TBX3 [7, 11]: YES
- Transcripts with decreased expression compared to control (qPCR) ([7]; wtD3 mESCs, 10 μM peptide, 24 h): Nanog, Tbx3, Nr0b1 and Nr5a2
- Transcripts unchanged / not inhibited (qPCR) ([7]; wtD3 mESCs, 24 h treatment): Klf4 and Esrrb
- NANOG protein expression [8]: decreased levels of protein
- OCT4 protein expression in the presence of SU5402 ([1]; peptide-treated wtD3 mESCs plus FGFR1 inhibitor SU5402, after 5 days): increased cell death and statistically significant loss of OCT protein expression
- pERK1/2 compared to untreated mESCs (pERK1/2 in wtD3 mESCs): decreased pERK1/2
- Binding of fluorescent-tagged peptide to wtD3 versus Ecad−/− mESCs (wtD3 and Ecad−/− mESCs): binds specifically to E-cadherin
- cell viability in monolayer culture (mESCs): no significant difference in cell viability

Molecule: Cc1c[nH]c(/C=C2\C(=O)Nc3ccccc32)c1CCC(=O)O [SU5402]
- OCT4 protein expression, inhibitor with vehicle control [1]: maintained expression of OCT4 protein

Molecule: SWELYYRLRANL [EpepP7R]
- Kd [9]: 3.87 µM

Molecule: AWELYYPLRANL [Epep (E-cadherin binding peptide H-…-NH2) S1A]
- Kd [10]: 1.19 µM
